Assay results taken from US20250136576A1, “Heterocyclic Compounds and Uses Thereof” (ACEA Therapeutics, Inc., priority 2021, published 2025).
Read-outs that look alike come from different tables or passages of the source. Values belong to the molecule of their own block, whether it stands above or below them.

How the values were obtained:
KM12-luc cells = test: Cell proliferation and growth inhibition assay (CCK-8) in KM12-luc; type: cell-based; conditions: KM12-luc cells, treated with test compounds for 72 hrs, CCK-8 viability, read-out: NTRK IC50 in KM12-luc
In short: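 Cells were grown at 37 °C, 5% CO2 with 10% FBS: MV-4-11 in IMDM, H1975 in RPMI 1640, KM12-luc in DMEM. Viability was read by CCK-8 (1-4 hrs reagent incubation, absorbance at OD450). IC50 came from a non-linear sigmoidal dose-response fit.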

H1975 cells = test: Cell proliferation and growth inhibition assay (CCK-8) in H1975; type: cell-based; conditions: treated with test compounds for 72 hrs, CCK-8 viability, read-out: EGFR IC50 in H1975
Procedure: MV-4-11 and H1975 cells were obtained from the American Type Culture Collection and KM12-luc cells were obtained from JCRB Cell Bank. All cell lines were maintained at 37° C. with 5% C02, in media supplemented with 10% fetal bovine serum and penicillin (100 units/mL) and streptomycin (100 μg/mL). MV-4-11 cells were maintained in Iscove's Modified Dubecco's Medium, H1975 cells were cultured with RPMI 1640 media, and KM12-luc cells were maintained in Dulbecco's Modification of Eagle's Medium. CCK-8 reagent was obtained from Yeasen.
Cell proliferation was assessed by CCK-8 assay (Yeasen) per the manufacturer's instructions. The MV-4-11 (AML), H1975, and KM12-luc cells were seeded at 30,000, 3,000 and 2,500 cells per well onto 96-well plates, and after a 24 h incubation, the cells were treated with test compounds for 72 hrs. Cell viability was assayed by incubating the cells with CCK-8 reagent for 1-4 hrs. Absorbance was measured at OD450 using the Beckman DTX880. The data was calculated using GraphPad Prism version 6.01. The IC50 values were fitted using a non-linear regression model with a sigmoidal dose response.

SMILES: CCC(=O)Nc1cccc(Nc2ncc(F)c(Nc3ccc(N4CCN(C(C)=O)CC4)cc3OC)n2)c1 [Compound 156, N-(3-((4-((4-(4-acetylpiperazin-1-yl)-2-methoxyphenyl)amino)-5-fluoropyrimidin-2-yl)amino)phenyl)propionamide]
IC50 (KM12-luc cells; KM12-Luc, 72 h): 0.37 µM | IC50 (H1975 cells; Homo sapiens, NCI-H1975, 72 h): 2.79 µM

SMILES: CCN(CCN(C)C)c1cc(F)c(Nc2nc(-c3cn(C)c4ccccc34)c3cc[nH]c3n2)cc1NC(C)=O [Compound 201, N-(2-((2-(dimethylamino)ethyl)(ethyl)amino)-4-fluoro-5-((4-(1-methyl-1H-indol-3-yl)-7H-pyrrolo[2,3-d]pyrimidin-2-yl)amino)phenyl)acetamide]
IC50 (KM12-luc cells; KM12-Luc, 72 h): 0.444 µM | IC50 (H1975 cells; Homo sapiens, NCI-H1975, 72 h): 1.1 µM

SMILES: CCC(=O)Nc1cc(Nc2nc(-c3cn(C)c4ccccc34)c3cc[nH]c3n2)ccc1N(CC)CCN(C)C [Compound 212b, N-(2-((2-(dimethylamino)ethyl)(ethyl)amino)-5-((4-(1-methyl-1H-indol-3-yl)-7H-pyrrolo[2,3-d]pyrimidin-2-yl)amino)phenyl)propionamide]
IC50 (KM12-luc cells; KM12-Luc, 72 h): 0.037 µM | IC50 (H1975 cells; Homo sapiens, NCI-H1975, 72 h): 1.66 µM

SMILES: CC(=O)Nc1cc(Nc2nc(-c3c[nH]c4ccccc34)c3cc[nH]c3n2)cc(F)c1N(C)CCN(C)C [Compound 248a, N-(5-((4-(1H-indol-3-yl)-7H-pyrrolo[2,3-d]pyrimidin-2-yl)amino)-2-((2-(dimethylamino)ethyl)(methyl)amino)-3-fluorophenyl)acetamide]
IC50 (KM12-luc cells; KM12-Luc, 72 h): 0.0128 µM | IC50 (H1975 cells): 0.442 µM

SMILES: CC(=O)Nc1cc(Nc2nc(-c3c[nH]c4ccccc34)c3cc[nH]c3n2)cc(F)c1N(C)CCN(C)C [Compound 248b, N-(5-((4-(1H-indol-3-yl)-7H-pyrrolo[2,3-d]pyrimidin-2-yl)amino)-2-((2-(dimethylamino)ethyl)(methyl)amino)-3-fluorophenyl)acetamide]
IC50 (KM12-luc cells): 0.0171 µM | IC50 (H1975 cells): 1.05 µM

SMILES: CC(=O)Nc1cc(Nc2ncc(C(F)(F)F)c(-c3cn(C)c4ccccc34)n2)ccc1N(C)CCN(C)C [Compound 296, N-(2-((2-(dimethylamino)ethyl)(methyl)amino)-5-((4-(1-methyl-1H-indol-3-yl)-5-(trifluoromethyl)pyrimidin-2-yl)amino)phenyl)acetamide]
IC50 (KM12-luc cells): 0.0107 µM | IC50 (H1975 cells; Homo sapiens, NCI-H1975, 72 h): 1.07 µM

SMILES: CCC(=O)Nc1cc(Nc2ncc(C(F)(F)F)c(-c3c[nH]c4ccccc34)n2)ccc1N(C)CCN(C)C [Compound 298, N-(5-((4-(1H-indol-3-yl)-5-(trifluoromethyl)pyrimidin-2-yl)amino)-2-((2-(dimethylamino)ethyl)(methyl)amino)phenyl)propionamide]
IC50 (KM12-luc cells; KM12-Luc, 72 h): 0.044 µM | IC50 (H1975 cells; Homo sapiens, NCI-H1975, 72 h): 0.289 µM

SMILES: CC(=O)Nc1cc(Nc2ncc(C(F)(F)F)c(-c3c[nH]c4ccccc34)n2)ccc1NCCN(C)C [Compound 303a, N-(5-((4-(1H-indol-3-yl)-5-(trifluoromethyl)pyrimidin-2-yl)amino)-2-((2-(dimethylamino)ethyl)amino)phenyl)acetamide]
IC50 (KM12-luc cells; KM12-Luc, 72 h): 0.0191 µM | IC50 (H1975 cells; Homo sapiens, NCI-H1975, 72 h): 0.109 µM

SMILES: CC(=O)Nc1cc(Nc2ncc(C(F)(F)F)c(-c3cn(C)c4ccccc34)n2)ccc1N(C)CCN(C)C [Compound 305, N-(2-((2-(dimethylamino)ethyl)(methyl)amino)-5-((4-(1-methyl-1H-indol-3-yl)-5-(trifluoromethyl)pyrimidin-2-yl)amino)phenyl)acetamide]
IC50 (KM12-luc cells): 0.0289 µM | IC50 (H1975 cells): 0.653 µM

SMILES: CC(=O)Nc1cc(Nc2ncc(C(F)(F)F)c(-c3c[nH]c4cccc(F)c34)n2)ccc1N(C)CCN(C)C [Compound 316, N-(2-((2-(dimethylamino)ethyl)(methyl)amino)-5-((4-(4-fluoro-1H-indol-3-yl)-5-(trifluoromethyl)pyrimidin-2-yl)amino)phenyl)acetamide]
IC50 (KM12-luc cells; KM12-Luc, 72 h): 0.0216 µM | IC50 (H1975 cells; Homo sapiens, NCI-H1975, 72 h): 0.477 µM

SMILES: CC(=O)Nc1cc(Nc2ncc(C(F)(F)F)c(-c3c[nH]c4c(C)cccc34)n2)c(F)cc1N(C)CCN(C)C [Compound 362, N-(2-((2-(dimethylamino)ethyl)(methyl)amino)-4-fluoro-5-((4-(7-methyl-1H-indol-3-yl)-5-(trifluoromethyl)pyrimidin-2-yl)amino)phenyl)acetamide]
IC50 (KM12-luc cells; KM12-Luc, 72 h): 0.0326 µM | IC50 (H1975 cells; Homo sapiens, NCI-H1975, 72 h): 0.0186 µM

SMILES: COc1cnc(Nc2ccc(N(C)CCN(C)C)c(N)c2)nc1-c1c[nH]c2c(OC)cccc12 [Compound 536, N^1-(2-(dimethylamino)ethyl)-N^1-methyl-N^4-(5-methoxy-4-(7-methoxy-1H-indol-3-yl)pyrimidin-2-yl)benzene-1,2,4-triamine]
IC50 (H1975 cells; Homo sapiens, NCI-H1975, 72 h): 0.837 µM

SMILES: COc1cnc(Nc2ccc(N(C)CCN(C)C)c(NC(C)=O)c2)nc1-c1c[nH]c2c(C)cccc12 [Compound 537, N-(2-((2-(dimethylamino)ethyl)(methyl)amino)-5-((5-methoxy-4-(7-methyl-1H-indol-3-yl)pyrimidin-2-yl)amino)phenyl)acetamide]
IC50 (H1975 cells): 1.08 µM

SMILES: CCC(=O)Nc1cc(Nc2ncc(OC)c(-c3c[nH]c4c(OC)cccc34)n2)ccc1N(C)CCN(C)C [Compound 538, N-(2-((2-(dimethylamino)ethyl)(methyl)amino)-5-((5-methoxy-4-(7-methoxy-1H-indol-3-yl)pyrimidin-2-yl)amino)phenyl)propionamide]
IC50 (H1975 cells; Homo sapiens, NCI-H1975, 72 h): 3.68 µM

SMILES: CCC(=O)Nc1cc(Nc2ncc(C(F)(F)F)c(-c3c[nH]c4c(F)cccc34)n2)ccc1N(C)CCN(C)C [Compound 540, N-(2-((2-(dimethylamino)ethyl)(methyl)amino)-5-((4-(7-fluoro-1H-indol-3-yl)-5-(trifluoromethyl)pyrimidin-2-yl)amino)phenyl)propionamide]
IC50 (H1975 cells; Homo sapiens, NCI-H1975, 72 h): 0.0954 µM

SMILES: CCC(=O)Nc1cc(Nc2ncc(C(F)(F)F)c(-c3c[nH]c4c(C)cccc34)n2)ccc1N(C)CCN(C)C [Compound 542, N-(2-((2-(dimethylamino)ethyl)(methyl)amino)-5-((4-(7-methyl-1H-indol-3-yl)-5-(trifluoromethyl)pyrimidin-2-yl)amino)phenyl)propionamide]
IC50 (H1975 cells; Homo sapiens, NCI-H1975, 72 h): 0.0804 µM

Further lines, results first:

IC50 (H1975 cells; Homo sapiens, NCI-H1975, 72 h): 0.0674 µM
SMILES: CCC(=O)Nc1cc(Nc2ncc(C(F)(F)F)c(-c3c[nH]c4c(OC)cccc34)n2)ccc1N(C)CCN(C)C [Compound 543, N-(2-((2-(dimethylamino)ethyl)(methyl)amino)-5-((4-(7-methoxy-1H-indol-3-yl)-5-(trifluoromethyl)pyrimidin-2-yl)amino)phenyl)propionamide]

IC50 (H1975 cells; Homo sapiens, NCI-H1975, 72 h): 0.877 µM
SMILES: CN(C)CCN(C)c1ccc(Nc2nccc(-c3c[nH]c4c(F)cccc34)n2)cc1N [Compound 545, N^1-(2-(dimethylamino)ethyl)-N^1-methyl-N^4-(4-(7-fluoro-1H-indol-3-yl)pyrimidin-2-yl)benzene-1,2,4-triamine]

IC50 (H1975 cells; Homo sapiens, NCI-H1975, 72 h): 1.02 µM
SMILES: CC(=O)Nc1cc(Nc2nccc(-c3c[nH]c4c(F)cccc34)n2)ccc1N(C)CCN(C)C [Compound 546, N-(2-((2-(dimethylamino)ethyl)(methyl)amino)-5-((4-(7-fluoro-1H-indol-3-yl)pyrimidin-2-yl)amino)phenyl)acetamide]

IC50 (H1975 cells; Homo sapiens, NCI-H1975, 72 h): 1.18 µM
SMILES: CCC(=O)Nc1cc(Nc2nccc(-c3c[nH]c4c(F)cccc34)n2)ccc1N(C)CCN(C)C [Compound 547, N-(2-((2-(dimethylamino)ethyl)(methyl)amino)-5-((4-(7-fluoro-1H-indol-3-yl)pyrimidin-2-yl)amino)phenyl)propionamide]

IC50 (H1975 cells; Homo sapiens, NCI-H1975, 72 h): 0.682 µM
SMILES: Cc1cccc2c(-c3ccnc(Nc4ccc(N(C)CCN(C)C)c(N)c4)n3)c[nH]c12 [Compound 549, N^1-(2-(dimethylamino)ethyl)-N^1-methyl-N^4-(4-(7-methyl-1H-indol-3-yl)pyrimidin-2-yl)benzene-1,2,4-triamine]

IC50 (H1975 cells; Homo sapiens, NCI-H1975, 72 h): 1.51 µM
SMILES: CCC(=O)Nc1cc(Nc2nccc(-c3c[nH]c4c(C)cccc34)n2)ccc1N(C)CCN(C)C [Compound 550, N-(2-((2-(dimethylamino)ethyl)(methyl)amino)-5-((4-(7-methyl-1H-indol-3-yl)pyrimidin-2-yl)amino)phenyl)propionamide]

IC50 (H1975 cells; Homo sapiens, NCI-H1975, 72 h): 1.54 µM
SMILES: CC(=O)Nc1cc(Nc2nccc(-c3c[nH]c4c(C)cccc34)n2)ccc1N(C)CCN(C)C [Compound 551, N-(2-((2-(dimethylamino)ethyl)(methyl)amino)-5-((4-(7-methyl-1H-indol-3-yl)pyrimidin-2-yl)amino)phenyl)acetamide]

IC50 (H1975 cells; Homo sapiens, NCI-H1975, 72 h): 1.14 µM
SMILES: COc1cccc2c(-c3ccnc(Nc4ccc(N(C)CCN(C)C)c(N)c4)n3)c[nH]c12 [Compound 553, N^1-(2-(dimethylamino)ethyl)-N^4-(4-(7-methoxy-1H-indol-3-yl)pyrimidin-2-yl)-N^1-methylbenzene-1,2,4-triamine]

IC50 (H1975 cells; Homo sapiens, NCI-H1975, 72 h): 1.03 µM
SMILES: COc1cccc2c(-c3ccnc(Nc4ccc(N(C)CCN(C)C)c(NC(C)=O)c4)n3)c[nH]c12 [Compound 554, N-(2-((2-(dimethylamino)ethyl)(methyl)amino)-5-((4-(7-methoxy-1H-indol-3-yl)pyrimidin-2-yl)amino)phenyl)acetamide]

IC50 (H1975 cells; Homo sapiens, NCI-H1975, 72 h): 2.25 µM
SMILES: CCC(=O)Nc1cc(Nc2nccc(-c3c[nH]c4c(OC)cccc34)n2)ccc1N(C)CCN(C)C [Compound 555, N-(2-((2-(dimethylamino)ethyl)(methyl)amino)-5-((4-(7-methoxy-1H-indol-3-yl)pyrimidin-2-yl)amino)phenyl)propionamide]
